Test results: patent US8486465B1 (priority 2007, dated 2013)

Test system: Human breast cancer MCF-7 cells
Assay: Apoptosis of MCF-7 cells by Propidium Iodide technique measured by flow cytometry
Format: cell-based
Conditions: NOE 0
Text: Cell Culture. […] Levels of apoptosis (cell death) were then examined using the Propidium Iodide technique as measured by flow cytometry using a FACscan (BD Biosciences, San Jose, Calif.). Forward (FSC) and Side scatter (SSC) were used to gate the cells.
FIGS. 1A, 1C, 1E, and 1G are dot plots which show the populations of cells grown under the particular culture conditions described below, while FIGS. 1B, 1D, 1F, and 1H respectively are the corresponding frequency histograms showing the total population of apoptotic MCF-7 cancer cells for each culture.
FIGS. 2A, 2C, 2E, and 2G are dot plots which show the populations of cells grown under the particular culture conditions described below, while FIGS. […] 2B, 2D, 2F and 2H respectively are the corresponding frequency histograms showing the total population of apoptotic MCF-7 cancer cells for each culture.

[1] = GSH 5 mM alone, MCF-7, 24 hours (Table 1, Example 2)
[2] = GSH 10 mM alone, MCF-7, 24 hours (Table 2, Example 3)

Question: How did the “% cell death” value [1] turn out when N[C@@H](CCC(=O)N[C@@H](CS)C(=O)NCC(=O)O)C(=O)O [GSH, Glutathione] was run?
Answer: The value was 20%.

Question: And the “% cell death relative to control” value [1]?
Answer: The value was 11%.

Question: And the “% cell survival” value [1]?
Answer: Its value is 80%.

Question: What about the “% cell survival relative to Control” value [1] of the same compound?
Answer: Its value is 98%.

Question: And the “% cell death” value [2]?
Answer: The value was 10%.

Question: And the “% cell death relative to control” value [2]?
Answer: The value was 96%.

Question: What about the “% cell survival” value [2] of the same compound?
Answer: Its value is 90%.

Question: What about the “% cell survival relative to Control” value [2] of the same compound?
Answer: The value was 95%.
